In US20050171094A1, “Pyrrolopyrimidine derivatives” (priority 2002, published 2005):
Where two headings read alike, the source gives them in different places.

Target: recombinant human GSK-3β (Homo sapiens, UniProt P49841)
Test: Determination of inhibition of GSK-3 enzyme activity
Format: biochemical
Details: read-out: GSK-3 enzyme-inhibiting activity (IC50 value)
Procedure: Determination of Inhibition of GSK-3 Enzyme Activity
To five μl of a test compound in 5% DMSO as a solvent, 25 μl of phospho-glycogen synthase peptide-2 substrate solution [6 μm phospho-glycogen synthase peptide-2, 20 μm ATP, 16 mM MOPS buffer, pH 7.0, 0.2 mM EDTA, 20 mM magnesium acetate, 0.1 μl [γ-^33P]ATP (specific activity: about 110 TBq/mmol)] was added, and 20 μl of a GSK-3β enzyme solution [10 mU recombinant human GSK-3β, 20 mM MOPS buffer, pH 7.0, 1 mM EDTA, 0.1% polyoxyethylenelauryl ether (23 Lauryl Ether; Brij 35), 5% glycerol, 0.1% β-mercaptoethanol] was further added to initiate the reaction. After reacting at room temperature for 20 minutes, an equal amount of 200 mM phosphate solution was added to stop the reaction. 90 μl of the reaction product was allowed to adsorb to the MultiScreen PH plate (Millipore), and washed with 100 mM phosphate solution. After drying said plate, 30 μl of MicroScint-O (Packard Bioscience) was added, and cpm was measured by a scintilation counter to examine the inhibition activity. As used herein, Phospho GS Peptide 2 means […]P)-Glu-Asp-Glu-Glu-Glu (SEQ ID NO: 1).

recombinant human GSK-3β, sequence (P49841 whole entry): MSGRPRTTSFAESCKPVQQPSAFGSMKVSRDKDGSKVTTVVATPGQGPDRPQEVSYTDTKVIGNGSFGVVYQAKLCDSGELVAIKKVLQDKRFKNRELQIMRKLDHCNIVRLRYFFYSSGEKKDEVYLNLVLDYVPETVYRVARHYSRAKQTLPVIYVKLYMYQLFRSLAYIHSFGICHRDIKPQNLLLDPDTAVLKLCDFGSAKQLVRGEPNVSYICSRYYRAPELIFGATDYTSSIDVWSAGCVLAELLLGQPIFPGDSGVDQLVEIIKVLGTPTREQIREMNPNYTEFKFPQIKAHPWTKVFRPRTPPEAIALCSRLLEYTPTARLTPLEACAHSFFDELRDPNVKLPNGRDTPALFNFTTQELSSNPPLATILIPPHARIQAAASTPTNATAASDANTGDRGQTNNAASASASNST

Row | SMILES | IC50 (IC50 class given in μM) | IC50 (phospho-glycogen synthase peptide-2 substrate, [γ-33P]ATP, IC50 class printed in nM)
1 | N#Cc1c2n(c3c(=S)[nH]cnc13)CCN(Cc1ccccc1)c1ccccc1-2 [Compound No. 1799, 5-benzyl-9-thioxo-10-hydro-6H,7H-benzo[f]pyrimidino[5′,4′-2,3]pyrrolo[1,5-d]1,4-diazepine-13-carbonitrile] | 1 to 10 µM | 
2 | Cc1ccc(NC(=O)N2CCc3c(C#N)c4nc[nH]c(=O)c4n3CC2)cc1 [Compound No. 161, (11-cyano-4-oxo(3-hydro-6H,7H,9H,10H-1,4-diazaperhydroepino[4′,5′-1,5]pyrrolo[3,2-d]pyrimidine-8-yl))-N-(4-methylphenyl)carboxamide] | 1 to 10 µM | 
3 | N#Cc1c2n(c3c(=S)[nH]cnc13)CCN(C(=O)Nc1cccc(C(=O)O)c1)CC2 [Compound No. 792, 3-[(11-cyano-4-thioxo-3-hydro-6H,7H,9H,10H-1,4-diazaperhydroepino[4′,5′-1,5]pyrrolo[3,2-d]pyrimidine-8-yl)carbonylamino]benzoic Acid] |  | < 0.05 µM
4 | Cc1ccc(C(=O)N2CCc3c(C#N)c4nc[nH]c(=O)c4n3CC2)cc1 [Compound No. 50, 8-[(4-methylphenyl)carbonyl]4-oxo-3-hydro-6H,7H,9H,10H-1,4-diazaperhydroepino[1′,7′-5,1]pyrrolo[3,2-d]pyrimidine-11-carbonitrile] | 1 to 10 µM | 
5 | N#Cc1c2n(c3c(=S)[nH]cnc13)CCN(S(=O)(=O)c1ccccc1)CC2 [Compound No. 410, 8-(phenylsulfonyl)-4-thioxo-3-hydro-6H,7H,9H,10H-1,4-diazaperhydroepino[1′,7′-5,1]pyrrolo[3,2-d]pyrimidine-11-carbonitrile] | 1 to 10 µM | 
